Measurements as given in US9237747B2, “Herbicidal compositions comprising 4-amino-3-chloro-5-fluoro-6-(4-chloro-2-fluoro-3-methoxyphenyl) pyridine-2-carboxylic acid or a derivative thereof and insecticides” (priority 2013, dated 2016).
Several values for one entry are separate records, joined by “and”; a condition that tells them apart may be missing. Equal entries are not always repeated. Where two headings read alike, the source gives them in different places.

Key:
ECHCO = assay: Postemergence foliar-applied weed control, direct-seeded rice (greenhouse); type: in vivo, Echinochloa colonum
Method: (§1) Seeds or nutlets of the desired test plant species were planted in a soil matrix prepared by mixing a loam or sandy loam soil (e.g., 28.6 percent silt, 18.8 percent clay, and 52.6 percent sand, with a pH of about 5.8 and an organic matter content of about 1.8 percent) and calcareous grit in an 80 to 20 ratio. The soil matrix was contained in plastic pots with a volume of 1 quart and a surface area of 83.6 square centimeters (cm^2). […] The plants were grown for 8-22 days in a greenhouse with an approximate 14 hour (h) photoperiod which was maintained at about 29° C. during the day and 26° C. during the night. Nutrients (Peters Excel® 15-5-15 5-Ca 2-Mg and iron chelate) were applied in the irrigation solution as needed and water was added on a regular basis. Supplemental lighting was provided with overhead metal halide 1000-Watt lamps as necessary. The plants were employed for testing when they reached the first through fourth true leaf stage.
(§2) Treatments consisted of the acid or esters of 4-amino-3-chloro-6-(4-chloro-2-fluoro-3-methoxyphenyl)-5-fluoropyridine-2-carboxylic acid (Compound A), each formulated as an SC (suspension concentrate), and various insecticidal components alone and in combination. Forms of compound A were applied on an acid equivalent basis.
(§3) For treatments comprised of formulated compounds, measured amounts of compounds were placed individually in 25 mL glass vials and diluted in a volume of 1.25% volume per volume (v/v) Agri-Dex® crop oil concentrate to obtain 12× stock solutions. […] Application solutions were prepared by adding an appropriate amount of each stock solution (e.g., 1 mL) and diluted to the appropriate final concentrations with the addition of […] of an aqueous mixture of 1.25% (v/v) crop oil concentrate so that the final spray solutions contained 1.25+/−0.05% (v/v) crop oil concentrate.
(§4) As required, additional water and/or 97:3 v/v acetone/DMSO was added to individual application solutions so that the final acetone and DMSO concentrations of the application solutions being compared were 8.1% and 0.25%, respectively.
(§5) All stock solutions and applications solutions were visually inspected for compound compatibility prior to application. Spray solutions were applied to the plant material with an overhead Mandel track sprayer equipped with 8002E nozzles calibrated to deliver 187 L/ha over an application area of 0.503 square meters (m^2) at a spray height of 18 to 20 inches (46 to 50 cm) above average plant canopy height. Control plants were sprayed in the same manner with the solvent blank.
(§6) The treated plants and control plants were placed in a greenhouse as described above and watered by sub-irrigation to prevent wash-off of the test compounds. After approximately 3 weeks, the condition of the test plants as compared to that of the untreated plants was determined visually and scored on a scale of 0 to 100 percent where 0 corresponds to no injury or growth inhibition and 100 corresponds to complete kill.
(§7) Colby's equation was used to determine the herbicidal effects expected from the mixtures (Colby, S. R. Calculation of the synergistic and antagonistic response of herbicide combinations. Weeds 1967, 15, 20-22.).
(§8) The following equation was used to calculate the expected activity of mixtures containing two active ingredients, A and B: Expected=A+B−(A×B/100)

SCPMA = assay: In-water applied weed control, transplanted paddy rice (greenhouse); type: in vivo, Schoenoplectus maritimus
Method: Weed seeds or nutlets of the desired test plant species were planted in puddled soil (mud) prepared by mixing a shredded, non-sterilized mineral soil (50.5 percent silt, 25.5 percent clay, and 24 percent sand, with a pH of about 7.6 and an organic matter content of about 2.9 percent) and water at a 1:1 volumetric ratio. The prepared mud was dispensed in 365 mL aliquots into 16-ounce (oz.) non-perforated plastic pots with a surface area of 86.59 square centimeters (cm^2) leaving a headspace of 3 centimeters (cm) in each pot. Rice seeds were planted in Sun Gro MetroMix® 306 planting mixture, which typically has a pH of 6.0 to 6.8 and an organic matter content of about 30 percent, in plastic plug trays. Seedlings at the second or third leaf stage of growth were transplanted into 860 mL of mud contained in 32-oz. non-perforated plastic pots with a surface area of 86.59 cm^2 4 days prior to herbicide application. The paddy was created by filling the headspace of the pots with 2.5 to 3 cm of water. When required to ensure good germination and healthy plants, a fungicide treatment and/or other chemical or physical treatment was applied. The plants were grown for 4-22 days in a greenhouse with an approximate 14 h photoperiod which was maintained at about 29° C. during the day and about 26° C. during the night. Nutrients were added as Osmocote® (17:6:10, N:P:K+minor nutrients) at 2 grams (g) per 16-oz. pot and 4 g per 32-oz. pot. Water was added on a regular basis to maintain the paddy flood, and supplemental lighting was provided with overhead metal halide 1000-Watt lamps as necessary. The plants were employed for testing when they reached the first through fourth true leaf stage.
Treatments consisted of the acid or esters of 4-amino-3-chloro-5-fluoro-6-(4-chloro-2-fluoro-3-methoxy-phenyl)pyridine-2-carboxylic acid (compound A) each formulated as an SC (suspension concentrate) and various herbicidal components alone and in combination. Forms of compound A were applied on an acid equivalent basis.
Other […] components were applied on an active ingredient basis and consisted of etofenprox (technical grade material) and sulfoxaflor formulated as Sulfoxaflor WG.
Treatment requirements for each compound or herbicidal component were calculated based upon the rates being tested, the concentration of active ingredient or acid equivalent in the formulation, an application volume of 2 mL per component per pot, and an application area of 86.59 cm^2 per pot.
For formulated compounds, a measured amount was placed in an individual 100 or 200 mL glass vial and was dissolved in a volume of 1.25% (v/v) AgriDex® crop oil concentrate to obtain application solutions.
For technical grade compounds, a weighed amount was placed in an individual 100 to 200 mL glass vial and was dissolved in a volume of acetone to obtain concentrated stock solutions.
Applications were made by injecting with a pipetter appropriate amounts of the application solutions, individually and sequentially, into the aqueous layer of the paddy. Control plants were treated in the same manner with the solvent blank. Applications were made so that all treated plant material received the same concentrations of acetone and crop oil concentrate.
The treated plants and control plants were placed in a greenhouse as described above and water was added as needed to maintain a paddy flood. After approximately 3 weeks the condition of the test plants as compared with that of the untreated plants was determined visually and scored on a scale of 0 to 100 percent where 0 corresponds to no injury or growth inhibition and 100 corresponds to complete kill.
Colby's equation was used to determine the herbicidal effects expected from the mixtures (Colby, S. R. Calculation of the synergistic and antagonistic response of herbicide combinations. Weeds 1967, 15, 20-22.). […]

DIGSA = type: in vivo, Digitaria sanguinalis
Method: as §1, §2, §3, §4, §5, §6, §7, §8

COc1c(Cl)ccc(-c2nc(C(=O)O)c(Cl)c(N)c2F)c1F [Compound A Acid, 4-amino-3-chloro-6-(4-chloro-2-fluoro-3-methoxyphenyl)-5-fluoropyridine-2-carboxylic acid]
Visual Weed Control (%) - 22 DAA ECHCO Obs (ECHCO; 4.38 g ae/ha alone): 55% | Visual Weed Control (%) - 21 DAA ECHCO Obs (ECHCO; 4.38 g ae/ha alone): 60% | Visual Weed Control (%) - 21 DAA ECHCO Obs (ECHCO; 8.75 g ae/ha alone): 90% | Visual Weed Control (%) - 21 DAA ECHCO Obs (ECHCO; 17.5 g ae/ha alone): 95% | Visual Weed Control (%) - 21 DAA SCPMA Obs (SCPMA; 4.38 g ae/ha alone): 0% | Visual Weed Control (%) - 21 DAA SCPMA Obs (SCPMA; 8.75 g ae/ha alone): 0% | Visual Weed Control (%) - 20 DAA DIGSA Obs (DIGSA; 4.38 g ae/ha alone): 40% | Visual Weed Control (%) - 20 DAA DIGSA Obs (DIGSA; 5.3 g ae/ha alone): 15% | Visual Weed Control (%) - 20 DAA DIGSA Obs (DIGSA; 10.6 g ae/ha alone): 35% | Visual Weed Control (%) - 20 DAA DIGSA Obs (DIGSA; 21.2 g ae/ha alone): 50%

COc1c(Cl)ccc(-c2nc(C(=O)OCc3ccccc3)c(Cl)c(N)c2F)c1F [Compound A Benzyl Ester]
Visual Weed Control (%) - 19 DAA ECHCO Obs (ECHCO; 8 g ae/ha alone): 65% | Visual Weed Control (%) - 20 DAA ECHCO Obs (ECHCO; 8 g ae/ha alone): 65% | Visual Weed Control (%) - 19 DAA ECHCO Obs (ECHCO; 16 g ae/ha alone): 90% | Visual Weed Control (%) - 19 DAA ECHCO Obs (ECHCO; 19 DAA, 8 g ae/ha alone): 65% | Visual Weed Control (%) - 19 DAA ECHCO Obs (ECHCO; 19 DAA, 16 g ae/ha alone): 90% | Visual Weed Control (%) - 19 DAA ECHCO Obs (ECHCO; 19 DAA, 32 g ae/ha alone): 95% | Visual Weed Control (%) - 19 DAA ECHCO Obs (ECHCO; 32 g ae/ha alone): 95% | Visual Weed Control (%) - 21 DAA SCPMA Obs (SCPMA; 21 DAA, 4.38 g ae/ha alone): 0% | Visual Weed Control (%) - 21 DAA SCPMA Obs (SCPMA; 21 DAA, 8.75 g ae/ha alone): 0% | Visual Weed Control (%) - 21 DAA SCPMA Obs (SCPMA; 21 DAA, 17.5 g ae/ha alone): 0% | Visual Weed Control (%) - 20 DAA DIGSA Obs (DIGSA; 4.38 g ae/ha alone): 40% and 25% | Visual Weed Control (%) - 20 DAA DIGSA Obs (DIGSA; 8 g ae/ha alone): 20% | Visual Weed Control (%) - 21 DAA DIGSA Obs (DIGSA; 8 g ae/ha alone): 10% | Visual Weed Control (%) - 22 DAA DIGSA Obs (DIGSA; 8 g ae/ha alone): 13% | Visual Weed Control (%) - 20 DAA DIGSA Obs (DIGSA; 16 g ae/ha alone): 23% and 30% | Visual Weed Control (%) - 22 DAA DIGSA Obs (DIGSA; 16 g ae/ha alone): 18% | Visual Weed Control (%) - 20 DAA DIGSA Obs (DIGSA; 17.5 g ae/ha alone): 15% | Visual Weed Control (%) - 19 DAA DIGSA Obs (DIGSA; 8 g ae/ha alone): 30% | Visual Weed Control (%) - 19 DAA DIGSA Obs (DIGSA; 16 g ae/ha alone): 35% | Visual Weed Control (%) - 19 DAA DIGSA Obs (DIGSA; 32 g ae/ha alone): 40% | Visual Weed Control (%) - 22 DAA DIGSA Obs (DIGSA; 22 DAA, 8 g ae/ha alone): 10% and 13% | Visual Weed Control (%) - 22 DAA DIGSA Obs (DIGSA; 22 DAA, 8 g ae/ha alone, second part of Table 18): 13% | Visual Weed Control (%) - 22 DAA DIGSA Obs (DIGSA; 22 DAA, 16 g ae/ha alone): 25% and 18% and 20% | Visual Weed Control (%) - 22 DAA DIGSA Obs (DIGSA; 22 DAA, 16 g ae/ha alone, second part of Table 18): 18% | Visual Weed Control (%) - 22 DAA DIGSA Obs (DIGSA; 22 DAA, 32 g ae/ha alone): 40% and 28% and 25% | Visual Weed Control (%) - 22 DAA DIGSA Obs (DIGSA; 22 DAA, 32 g ae/ha alone, second part of Table 18): 28% | Visual Weed Control (%) - 20 DAA DIGSA Obs (DIGSA; 32 g ae/ha alone): 30% and 40% | Visual Weed Control (%) - 22 DAA DIGSA Obs (DIGSA; 32 g ae/ha alone): 28%

CC(c1ccc(C(F)(F)F)nc1)S(C)(=O)=NC#N (stereo not shown) [Sulfoxaflor, N-[methyloxido[1-[6-(trifluoromethyl)-3-pyridinyl]ethyl]-λ^4-sulfanylidene]cyanamide]
Visual Weed Control (%) - 21 DAA ECHCO Obs (ECHCO; 12.5 g ai/ha alone): 0% | Visual Weed Control (%) - 21 DAA ECHCO Obs (ECHCO; 25 g ai/ha alone): 0% | Visual Weed Control (%) - 21 DAA ECHCO Obs (ECHCO; 50 g ai/ha alone): 0% | Visual Weed Control (%) - 21 DAA SCPMA Obs (SCPMA; 21 DAA, 50 g ai/ha alone): 0% | Visual Weed Control (%) - 21 DAA SCPMA Obs (SCPMA; 50 g ai/ha alone): 0%
